*1 amine or outer side, *2 acyl side, *3 side chain or, on linkers, in order; H or OH if unused. Where a SMILES comes first, the peptide text is derived from it. Bridges are numbered along the chain shown (N, C = ends). Roman numbers before positions name the chains, in order. [ ]: non-standard residue; d: D form. ξ: configuration not given here. Phe(4-NH2) = Nc1ccc(C[C@H](N)C(=O)O)cc1; NMehCys = CN[C@@H](CCS)C(=O)O; Thr(3ξ) = CC(O)[C@H](N)C(=O)O; Dap = NC[C@H](N)C(=O)O; X1 = O=C(C[*:1])[*:2]
Key:
SSTR = conditions: P2045 radiolabeled with radioactive isotopes of rhenium; versus Depreotide; cited from earlier work
[1] = P2045 radiolabeled with radioactive isotopes of rhenium; versus Depreotide; cited from earlier work
[2] = intravenously, 1.5 mg/m^2, daily×5, every 21 days; cited from earlier work
SSTR2 = SSTR2 expression in small cell cell lines after 24 hours of incubation (FIG. 2, FIG. 3); assay type: cell-based; conditions: H69, H187 and H417 cell lines, 3 and 5 mM valproic acid, versus beta-actin (control)
Protocol: FIG. 3 graphically quantifies the expression of SSTR2 in small cell cell lines after 24 hours of incubation with 3 and 5 mM valproic acid versus the demethylating agent, Decitabine.
FIG. 3 graphically quantifies the expression of SSTR2 […].

[3] = cited from earlier work

CC(O)[C@H](NC(=O)[C@H](CS)NC(=O)[C@H](Cc1ccc(N)cc1)NC(=O)[C@@H](N)CNC(=O)CSCC[C@H]1C(=O)N[C@@H](Cc2ccc(O)cc2)C(=O)N[C@H](Cc2c[nH]c3ccccc23)C(=O)N[C@@H](CCCCN)C(=O)N[C@@H](C(C)O)C(=O)N[C@@H](Cc2ccccc2)C(=O)N1C)C(=O)N[C@@H](CO)C(=O)O (stereo partly drawn) [P2045, cyclo-[Tyr-(D-Trp)-Lys-Thr-Phe-(N-Me)Hcy]CH2CO-β-Dap-Phe(4-NH2)-Cys-Thr-Ser-OH)]] (I: cyclo(F[NMehCys]Y[dW]K[Thr(3ξ)]) / II: H-[Dap][Phe(4-NH2)]C[Thr(3ξ)]S-OH; linker I:2-II:1 via X1)
SSTR affinity (SSTR): retains the SSTR affinity of Depreotide
kidney and whole body retention [1]: lower kidney and whole body retention

CC[C@@]1(O)C(=O)OCc2c1cc1n(c2=O)Cc2cc3c(CN(C)C)c(O)ccc3nc2-1 [topotecan]
most common toxicities [2]: hematologic (grade 4 neutropenia, thrombocytopenia and grade 3/4 anemia)

CCCC(CCC)C(=O)O [valproic acid]
SSTR2 expression (SSTR2): upregulation of SSTR2
solubility in organic solvents [3]: very soluble
